{"source": "ChEMBL document CHEMBL5154702", "about": "“Synthesis and biological evaluation of aminobenzamides containing purine moiety as class I histone deacetylases inhibitors” (Bioorg Med Chem, 2022)", "key": {"HCT-116 [1]": {"tested_on": "HCT-116", "experiment": "Induction of apoptosis in human HCT-116 cells assessed as necrotic cells at 0.5 uM measured after 24 hrs by Annexin V-FITC/propidium iodide staining based flow cytometry (reference value: 7.39%)", "type": "functional"}, "[2]": {"target": "Histone deacetylase 3/Nuclear receptor corepressor 2 (HDAC3/NCoR2) (Homo sapiens, UniProt O15379)", "sequence (O15379 whole entry)": "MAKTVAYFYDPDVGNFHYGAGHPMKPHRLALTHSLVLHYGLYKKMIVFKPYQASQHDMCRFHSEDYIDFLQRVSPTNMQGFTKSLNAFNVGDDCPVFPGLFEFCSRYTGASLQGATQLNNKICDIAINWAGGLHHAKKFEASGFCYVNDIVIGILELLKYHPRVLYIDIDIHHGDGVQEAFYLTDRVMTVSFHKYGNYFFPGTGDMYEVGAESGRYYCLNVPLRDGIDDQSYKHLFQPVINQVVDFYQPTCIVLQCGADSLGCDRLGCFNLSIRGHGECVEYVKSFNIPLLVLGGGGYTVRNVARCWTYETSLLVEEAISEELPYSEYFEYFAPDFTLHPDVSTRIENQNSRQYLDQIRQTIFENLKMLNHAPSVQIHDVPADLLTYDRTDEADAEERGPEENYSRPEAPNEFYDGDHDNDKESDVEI", "sequence (Q9Y618 whole entry, further chain)": "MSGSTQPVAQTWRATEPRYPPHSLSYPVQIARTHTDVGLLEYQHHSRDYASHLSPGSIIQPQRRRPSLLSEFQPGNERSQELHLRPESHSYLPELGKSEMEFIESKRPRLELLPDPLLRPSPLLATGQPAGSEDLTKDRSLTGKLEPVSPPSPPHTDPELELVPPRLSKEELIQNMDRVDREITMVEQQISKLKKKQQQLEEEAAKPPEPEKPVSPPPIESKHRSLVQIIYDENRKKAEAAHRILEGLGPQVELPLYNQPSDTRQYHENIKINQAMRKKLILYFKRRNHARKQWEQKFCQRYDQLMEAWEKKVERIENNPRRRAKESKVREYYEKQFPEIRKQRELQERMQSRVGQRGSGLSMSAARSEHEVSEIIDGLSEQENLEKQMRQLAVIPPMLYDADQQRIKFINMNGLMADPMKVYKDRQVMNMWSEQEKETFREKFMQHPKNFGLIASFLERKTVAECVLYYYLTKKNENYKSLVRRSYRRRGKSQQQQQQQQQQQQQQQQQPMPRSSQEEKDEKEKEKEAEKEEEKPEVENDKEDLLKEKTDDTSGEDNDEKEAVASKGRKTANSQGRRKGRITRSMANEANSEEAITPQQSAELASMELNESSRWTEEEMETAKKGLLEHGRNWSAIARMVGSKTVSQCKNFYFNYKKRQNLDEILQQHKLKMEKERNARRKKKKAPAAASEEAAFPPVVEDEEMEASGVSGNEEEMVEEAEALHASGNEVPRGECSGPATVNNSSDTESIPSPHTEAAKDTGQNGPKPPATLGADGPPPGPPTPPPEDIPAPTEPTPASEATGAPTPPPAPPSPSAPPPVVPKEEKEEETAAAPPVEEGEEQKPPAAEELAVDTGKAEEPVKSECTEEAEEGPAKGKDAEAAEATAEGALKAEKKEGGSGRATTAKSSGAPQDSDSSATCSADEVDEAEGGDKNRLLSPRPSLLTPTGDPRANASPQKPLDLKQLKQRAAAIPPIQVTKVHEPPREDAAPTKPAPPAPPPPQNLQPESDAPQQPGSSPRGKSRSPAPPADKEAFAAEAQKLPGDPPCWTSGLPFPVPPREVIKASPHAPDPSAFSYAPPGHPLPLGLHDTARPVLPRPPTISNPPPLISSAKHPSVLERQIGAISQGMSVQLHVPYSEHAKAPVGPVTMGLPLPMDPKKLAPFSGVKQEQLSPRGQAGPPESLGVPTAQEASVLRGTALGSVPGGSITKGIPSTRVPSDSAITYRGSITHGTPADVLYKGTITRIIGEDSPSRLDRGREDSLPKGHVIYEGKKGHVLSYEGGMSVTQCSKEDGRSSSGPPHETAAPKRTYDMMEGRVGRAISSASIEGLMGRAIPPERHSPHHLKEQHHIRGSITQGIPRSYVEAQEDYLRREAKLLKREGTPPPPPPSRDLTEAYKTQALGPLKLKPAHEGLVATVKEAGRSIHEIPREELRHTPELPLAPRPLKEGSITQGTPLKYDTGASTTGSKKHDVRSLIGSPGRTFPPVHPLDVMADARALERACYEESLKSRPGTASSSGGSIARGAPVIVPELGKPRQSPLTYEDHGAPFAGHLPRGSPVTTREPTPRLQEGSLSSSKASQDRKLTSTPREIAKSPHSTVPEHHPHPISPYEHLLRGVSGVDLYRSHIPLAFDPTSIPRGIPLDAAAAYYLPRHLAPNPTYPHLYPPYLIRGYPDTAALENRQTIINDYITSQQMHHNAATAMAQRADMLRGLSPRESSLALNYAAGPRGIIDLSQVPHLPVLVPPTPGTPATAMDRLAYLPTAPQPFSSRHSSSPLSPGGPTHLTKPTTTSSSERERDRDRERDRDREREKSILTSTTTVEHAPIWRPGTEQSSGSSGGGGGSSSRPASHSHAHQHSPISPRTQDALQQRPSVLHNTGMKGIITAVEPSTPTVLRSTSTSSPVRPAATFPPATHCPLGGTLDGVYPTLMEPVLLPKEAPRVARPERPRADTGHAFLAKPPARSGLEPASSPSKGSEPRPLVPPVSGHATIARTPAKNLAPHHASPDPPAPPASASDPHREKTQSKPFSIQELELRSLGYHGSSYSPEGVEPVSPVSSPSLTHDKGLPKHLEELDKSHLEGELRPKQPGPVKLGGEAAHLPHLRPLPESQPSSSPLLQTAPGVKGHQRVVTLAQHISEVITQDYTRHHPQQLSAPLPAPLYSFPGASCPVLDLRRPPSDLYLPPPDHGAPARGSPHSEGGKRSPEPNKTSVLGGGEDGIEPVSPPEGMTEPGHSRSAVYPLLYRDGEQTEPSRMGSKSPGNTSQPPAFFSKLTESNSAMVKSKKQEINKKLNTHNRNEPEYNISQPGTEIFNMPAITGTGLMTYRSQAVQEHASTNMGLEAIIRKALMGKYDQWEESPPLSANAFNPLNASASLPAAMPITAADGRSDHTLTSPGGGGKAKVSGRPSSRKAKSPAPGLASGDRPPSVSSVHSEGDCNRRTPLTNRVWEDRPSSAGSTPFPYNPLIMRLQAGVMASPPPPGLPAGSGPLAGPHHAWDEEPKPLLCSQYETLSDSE", "experiment": "biochemical", "parameters": "species or system Sf9"}, "[3]": {"target": "T1, Histone deacetylase (Homo sapiens) (UniProt Q13547+O15379+Q9UBN7+Q92769+Q9UQL6+Q8WUI4+Q9BY41+Q96DB2+P56524+Q9UKV0+Q969S8)", "experiment": "Potency index, ratio of MS-275 IC50 to test compound IC50 for inhibition of HDAC in human HeLa cell nuclear extracts using color de Lys as substrate"}, "HCT-116 [4]": {"tested_on": "HCT-116", "experiment": "Cell cycle arrest in human HCT-116 cells assessed as accumulation of cells at G0/G1 phase at 0.5 uM measured after 24 hrs by propidium iodide staining based flow cytometry (reference value: 58.05%)", "type": "functional"}, "HCT-116 [5]": {"tested_on": "HCT-116", "experiment": "Cell cycle arrest in human HCT-116 cells assessed as accumulation of cells at G0/G1 phase at 0.1 uM measured after 24 hrs by propidium iodide staining based flow cytometry (reference value: 58.05%)", "type": "functional"}, "HepG2": {"tested_on": "HepG2", "experiment": "cells", "type": "functional, cell-based", "conditions": "Homo sapiens, HepG2, 48 h"}, "Histone deacetylase 8": {"target": "T2, Histone deacetylase 8 (Homo sapiens, UniProt Q9BY41)", "T2 sequence (Q9BY41 whole entry)": "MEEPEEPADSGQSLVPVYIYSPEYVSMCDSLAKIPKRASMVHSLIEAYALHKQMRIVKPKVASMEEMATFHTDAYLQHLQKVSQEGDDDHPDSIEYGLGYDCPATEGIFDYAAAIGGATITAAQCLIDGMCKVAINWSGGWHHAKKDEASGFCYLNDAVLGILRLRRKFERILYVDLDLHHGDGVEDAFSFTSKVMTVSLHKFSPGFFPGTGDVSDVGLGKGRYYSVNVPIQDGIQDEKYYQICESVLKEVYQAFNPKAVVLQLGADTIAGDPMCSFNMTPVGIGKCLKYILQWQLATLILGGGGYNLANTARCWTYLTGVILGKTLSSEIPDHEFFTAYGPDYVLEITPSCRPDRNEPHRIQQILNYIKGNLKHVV", "experiment": "Inhibition of human full-length C-terminal His-tagged HDAC8 expressed in baculovirus infected Sf9 insect cell using fluorogenic HDAC class 2a substrate measured after 30 mins by fluorimetry"}, "HCT-116 [6]": {"tested_on": "HCT-116", "experiment": "Cell cycle arrest in human HCT-116 cells assessed as accumulation of cells at G0/G1 phase at 1 uM measured after 24 hrs by propidium iodide staining based flow cytometry (reference value: 58.05%)", "type": "functional"}, "HCT-116 [7]": {"tested_on": "HCT-116", "experiment": "Induction of cell morphological changes in human HCT-116 cells assessed as cell fragmentation at 0.5 to 5 uM measured after 24 hrs by phase contrast microscopy", "type": "functional, cell-based", "conditions": "dose 0.5-5 µM"}, "HCT-116 [8]": {"tested_on": "HCT-116", "experiment": "Induction of apoptosis in human HCT-116 cells assessed as necrotic cells at 1 uM measured after 24 hrs by Annexin V-FITC/propidium iodide staining based flow cytometry (reference value: 7.39%)", "type": "functional"}, "HCT-116 [9]": {"tested_on": "HCT-116", "experiment": "Cell cycle arrest in human HCT-116 cells assessed as accumulation of cells at G0/G1 phase at 5 uM measured after 24 hrs by propidium iodide staining based flow cytometry (reference value: 58.05%)", "type": "functional"}, "HCT-116 [10]": {"tested_on": "HCT-116", "experiment": "Cell cycle arrest in human HCT-116 cells assessed as down regulation of Bcl-2 expression measured after 24 hrs by Western blot analysis", "type": "functional, cell-based", "conditions": "dose 0.1-10 µM, DDE = dose-dependent effect"}, "HCT-116 [11]": {"tested_on": "HCT-116", "experiment": "Cell cycle arrest in human HCT-116 cells assessed as accumulation of cells at G2/M phase at 1 uM measured after 24 hrs by propidium iodide staining based flow cytometry (reference value: 22.74%)", "type": "functional"}, "HCT-116 [12]": {"tested_on": "HCT-116", "experiment": "Cell cycle arrest in human HCT-116 cells assessed as accumulation of cells at G0/G1 phase at 10 uM measured after 6 hrs by propidium iodide staining based flow cytometry (reference value: 58.05%)", "type": "functional"}, "HCT-116 [13]": {"tested_on": "HCT-116", "experiment": "Cell cycle arrest in human HCT-116 cells assessed as down regulation of cyclin D1 expression at 5 uM by Western blot analysis", "type": "functional, cell-based", "conditions": "time 6-48 hrs, TDE = time-dependent effect"}, "HCT-116 [14]": {"tested_on": "HCT-116", "experiment": "Cell cycle arrest in human HCT-116 cells assessed as up regulation of p21 expression measured after 24 hrs by Western blot analysis", "type": "functional, cell-based", "conditions": "dose 0.1-10 µM, DDE = dose-dependent effect"}, "Histone deacetylase": {"target": "Histone deacetylase", "type": "cell-based, Homo sapiens", "conditions": "hela"}, "HCT-116 [15]": {"tested_on": "HCT-116", "experiment": "Induction of cell morphological changes in human HCT-116 cells assessed as chromatin condensation at 0.5 to 5 uM measured after 24 hrs by Hoechst 33258 staining based fluorescence microscopy", "type": "functional", "conditions": "dose 0.5-5 µM"}, "[16]": {"experiment": "Intrinsic clearance in dog liver microsomes assessed per mg protein at 13.8 uM by HPLC analysis", "type": "ADME, Canis lupus familiaris, Microsome"}, "HCT-116 [17]": {"tested_on": "HCT-116", "experiment": "Cell cycle arrest in human HCT-116 cells assessed as up regulation of Bax expression measured after 24 hrs by Western blot analysis", "type": "functional, cell-based", "conditions": "dose 0.1-10 µM, DDE = dose-dependent effect"}, "[18]": {"experiment": "Half life in human liver microsomes at 13.8 uM by HPLC analysis", "type": "ADME, Microsome"}, "[19]": {"target": "T1, Histone deacetylase (Homo sapiens)", "experiment": "Potency index, ratio of SAHA IC50 to test compound IC50 for inhibition of HDAC in human HeLa cell nuclear extracts using color de Lys as substrate"}, "HCT-116 [20]": {"tested_on": "HCT-116", "experiment": "Cell cycle arrest in human HCT-116 cells assessed as up regulation of Bax expression at 5 uM by Western blot analysis", "type": "functional, cell-based", "conditions": "time 6-48 hrs, TDE = time-dependent effect"}, "[21]": {"target": "Histone deacetylase 1/2/3 (Homo sapiens) (UniProt Q13547+O15379+Q92769)", "experiment": "Inhibition of HDAC1/HDAC2/HDAC3 in human HCT-116 cells assessed as increase in accumulation of acetylated H3K9 measured after 24 hrs by Western blot analysis", "type": "cell-based", "conditions": "dose 0.1-10 µM, DDE = dose-dependent effect"}, "Histone deacetylase 1 [22]": {"target": "T3, Histone deacetylase 1 (Homo sapiens, UniProt Q13547)", "T3 sequence (Q13547 whole entry, the tested form may be a part)": "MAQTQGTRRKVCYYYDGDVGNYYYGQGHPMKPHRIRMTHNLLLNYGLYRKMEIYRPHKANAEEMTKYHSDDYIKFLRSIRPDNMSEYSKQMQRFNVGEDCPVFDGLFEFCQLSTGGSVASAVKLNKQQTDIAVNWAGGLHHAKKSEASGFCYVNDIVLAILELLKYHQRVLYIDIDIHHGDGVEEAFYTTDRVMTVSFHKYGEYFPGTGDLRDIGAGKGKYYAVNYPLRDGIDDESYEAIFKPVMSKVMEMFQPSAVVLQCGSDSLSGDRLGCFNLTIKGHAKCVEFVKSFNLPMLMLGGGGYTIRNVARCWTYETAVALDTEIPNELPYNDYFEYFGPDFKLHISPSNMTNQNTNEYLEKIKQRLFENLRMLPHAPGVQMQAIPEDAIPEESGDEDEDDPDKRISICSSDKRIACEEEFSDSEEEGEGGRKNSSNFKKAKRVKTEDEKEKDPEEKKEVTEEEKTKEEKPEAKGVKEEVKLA", "experiment": "Potency index, ratio of MS-275 IC50 to test compound IC50 for inhibition of recombinant human full-length C-terminal Flag-His6-tagged HDAC1 (1 to 482 residues) expressed in Sf9 insect cells"}, "HCT-116 [23]": {"tested_on": "HCT-116", "experiment": "Induction of apoptosis in human HCT-116 cells assessed as early apoptotic cells at 5 uM measured after 24 hrs by Annexin V-FITC/propidium iodide staining based flow cytometry (reference value: 1.87%)", "type": "functional"}, "[24]": {"experiment": "Half life in rat liver microsomes at 13.8 uM by HPLC analysis", "type": "ADME, Microsome"}, "HCT-116 [25]": {"tested_on": "HCT-116", "experiment": "Cell cycle arrest in human HCT-116 cells assessed as down regulation of cyclin D1 expression measured after 24 hrs by Western blot analysis", "type": "functional, cell-based", "conditions": "dose 0.1-10 µM, DDE = dose-dependent effect"}, "Histone deacetylase 4": {"target": "Histone deacetylase 4 (Homo sapiens, UniProt P56524)", "sequence (P56524 whole entry, the tested form may be a part)": "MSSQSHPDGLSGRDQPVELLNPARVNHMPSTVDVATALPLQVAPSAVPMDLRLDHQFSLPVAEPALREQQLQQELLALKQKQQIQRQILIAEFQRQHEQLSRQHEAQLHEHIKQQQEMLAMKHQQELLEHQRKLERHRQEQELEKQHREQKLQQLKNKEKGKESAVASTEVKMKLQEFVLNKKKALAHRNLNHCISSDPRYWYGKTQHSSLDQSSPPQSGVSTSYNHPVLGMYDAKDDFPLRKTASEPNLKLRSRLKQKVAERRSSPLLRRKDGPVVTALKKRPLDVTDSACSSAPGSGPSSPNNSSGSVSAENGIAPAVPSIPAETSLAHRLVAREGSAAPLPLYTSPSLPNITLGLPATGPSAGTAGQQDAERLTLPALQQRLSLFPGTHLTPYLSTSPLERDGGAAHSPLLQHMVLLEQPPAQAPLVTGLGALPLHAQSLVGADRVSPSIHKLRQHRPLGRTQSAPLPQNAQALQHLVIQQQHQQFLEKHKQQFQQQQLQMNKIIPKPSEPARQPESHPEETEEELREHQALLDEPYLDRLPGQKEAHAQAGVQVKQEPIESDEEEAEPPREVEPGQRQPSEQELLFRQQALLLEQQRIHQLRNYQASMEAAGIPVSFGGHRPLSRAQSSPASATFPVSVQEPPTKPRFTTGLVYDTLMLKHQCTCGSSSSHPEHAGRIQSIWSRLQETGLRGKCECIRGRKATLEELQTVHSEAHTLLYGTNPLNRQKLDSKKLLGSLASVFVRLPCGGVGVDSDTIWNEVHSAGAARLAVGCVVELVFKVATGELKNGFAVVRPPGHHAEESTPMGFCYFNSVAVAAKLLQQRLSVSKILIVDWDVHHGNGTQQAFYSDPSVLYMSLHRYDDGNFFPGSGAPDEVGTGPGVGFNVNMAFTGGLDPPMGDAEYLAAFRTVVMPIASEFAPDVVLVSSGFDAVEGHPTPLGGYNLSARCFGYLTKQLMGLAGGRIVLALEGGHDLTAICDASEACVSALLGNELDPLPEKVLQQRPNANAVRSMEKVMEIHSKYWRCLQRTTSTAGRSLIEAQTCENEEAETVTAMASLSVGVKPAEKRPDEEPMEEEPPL", "experiment": "Inhibition of recombinant human N-terminal GST-fused/C-terminal His-tagged HDAC4 (627 to 1084 residues) expressed in baculovirus infected Sf9 insect cells using fluorogenic HDAC class 2a substrate measured after 30 mins by fluorimetry"}, "K562": {"tested_on": "K562", "experiment": "cells", "type": "functional, cell-based", "conditions": "Homo sapiens, K562, 48 h"}, "Histone deacetylase 1 [26]": {"target": "T3, Histone deacetylase 1", "experiment": "Inhibition of recombinant human full-length C-terminal Flag-His6-tagged HDAC1 (1 to 482 residues) expressed in Sf9 insect cells using fluorogenic HDAC substrate measured after 30 mins by fluorimetry"}}, "note": "Active and inactive are the calls of the source. The calls are words filed in the database; no cut-off is given here.", "data": [{"smiles": "CCCCNc1nc(Cl)nc2c1ncn2Cc1ccc(C(=O)Nc2ccccc2N)cc1", "values": [{"measurement": "Activity", "setting": "HCT-116 [1]", "result": 0.442, "unit": "%"}, {"measurement": "IC50", "setting": "[2]", "result": 1240, "unit": "nM"}, {"measurement": "Ratio IC50", "setting": "[3]", "result": 19}, {"measurement": "Activity", "setting": "HCT-116 [4]", "result": 64.42, "unit": "%"}, {"measurement": "Activity", "setting": "HCT-116 [5]", "result": 59.1, "unit": "%"}, {"measurement": "IC50", "setting": "HepG2", "result": 1290, "unit": "nM"}, {"measurement": "IC50", "setting": "Histone deacetylase 8", "result": 948, "unit": "nM"}, {"measurement": "Activity", "setting": "HCT-116 [6]", "result": 66.71, "unit": "%"}, {"measurement": "Activity", "setting": "HCT-116 [7]", "result": "Active"}, {"measurement": "Activity", "setting": "HCT-116 [8]", "result": 1.2, "unit": "%"}, {"measurement": "Activity", "setting": "HCT-116 [9]", "result": 67.96, "unit": "%"}, {"measurement": "Activity", "setting": "HCT-116 [10]", "result": "Dde"}, {"measurement": "Activity", "setting": "HCT-116 [11]", "result": 15.43, "unit": "%"}, {"measurement": "Activity", "setting": "HCT-116 [12]", "result": 65.62, "unit": "%"}, {"measurement": "Activity", "setting": "HCT-116 [13]", "result": "Tde"}, {"measurement": "Activity", "setting": "HCT-116 [14]", "result": "Dde"}, {"measurement": "IC50", "setting": "Histone deacetylase", "result": 27.5, "unit": "nM"}, {"measurement": "Activity", "setting": "HCT-116 [15]", "result": "Active"}, {"measurement": "CLint", "setting": "[16]", "result": 3.1, "unit": "µL/min/mg"}, {"measurement": "Activity", "setting": "HCT-116 [17]", "result": "Dde"}, {"measurement": "half-life at 13.8 µM", "setting": "[18]", "result": 4.62, "unit": "h"}, {"measurement": "Ratio IC50", "setting": "[19]", "result": 4}, {"measurement": "Activity", "setting": "HCT-116 [20]", "result": "Tde"}, {"measurement": "inhibition", "setting": "[21]", "result": "Dde"}, {"measurement": "Ratio IC50", "setting": "Histone deacetylase 1 [22]", "result": 12}, {"measurement": "Activity", "setting": "HCT-116 [23]", "result": 70.6, "unit": "%"}, {"measurement": "half-life at 13.8 µM", "setting": "[24]", "result": 1.2, "unit": "h"}, {"measurement": "Activity", "setting": "HCT-116 [25]", "result": "Dde"}, {"measurement": "IC50", "setting": "Histone deacetylase 4", "result": "> 100000", "unit": "nM"}, {"measurement": "IC50", "setting": "K562", "result": 120, "unit": "nM"}, {"measurement": "IC50", "setting": "Histone deacetylase 1 [26]", "result": 55.1, "unit": "nM"}]}]}
